Measured values published in BindingDB's records for patent US20250144094 (Erasca, 2025).

What was measured:
[1] = molecular target: T1, Serine/threonine-protein kinase ULK1 (Homo sapiens, UniProt O75385); assay: ADP Glo Kinase Activity Assay
T1 sequence (O75385 whole entry): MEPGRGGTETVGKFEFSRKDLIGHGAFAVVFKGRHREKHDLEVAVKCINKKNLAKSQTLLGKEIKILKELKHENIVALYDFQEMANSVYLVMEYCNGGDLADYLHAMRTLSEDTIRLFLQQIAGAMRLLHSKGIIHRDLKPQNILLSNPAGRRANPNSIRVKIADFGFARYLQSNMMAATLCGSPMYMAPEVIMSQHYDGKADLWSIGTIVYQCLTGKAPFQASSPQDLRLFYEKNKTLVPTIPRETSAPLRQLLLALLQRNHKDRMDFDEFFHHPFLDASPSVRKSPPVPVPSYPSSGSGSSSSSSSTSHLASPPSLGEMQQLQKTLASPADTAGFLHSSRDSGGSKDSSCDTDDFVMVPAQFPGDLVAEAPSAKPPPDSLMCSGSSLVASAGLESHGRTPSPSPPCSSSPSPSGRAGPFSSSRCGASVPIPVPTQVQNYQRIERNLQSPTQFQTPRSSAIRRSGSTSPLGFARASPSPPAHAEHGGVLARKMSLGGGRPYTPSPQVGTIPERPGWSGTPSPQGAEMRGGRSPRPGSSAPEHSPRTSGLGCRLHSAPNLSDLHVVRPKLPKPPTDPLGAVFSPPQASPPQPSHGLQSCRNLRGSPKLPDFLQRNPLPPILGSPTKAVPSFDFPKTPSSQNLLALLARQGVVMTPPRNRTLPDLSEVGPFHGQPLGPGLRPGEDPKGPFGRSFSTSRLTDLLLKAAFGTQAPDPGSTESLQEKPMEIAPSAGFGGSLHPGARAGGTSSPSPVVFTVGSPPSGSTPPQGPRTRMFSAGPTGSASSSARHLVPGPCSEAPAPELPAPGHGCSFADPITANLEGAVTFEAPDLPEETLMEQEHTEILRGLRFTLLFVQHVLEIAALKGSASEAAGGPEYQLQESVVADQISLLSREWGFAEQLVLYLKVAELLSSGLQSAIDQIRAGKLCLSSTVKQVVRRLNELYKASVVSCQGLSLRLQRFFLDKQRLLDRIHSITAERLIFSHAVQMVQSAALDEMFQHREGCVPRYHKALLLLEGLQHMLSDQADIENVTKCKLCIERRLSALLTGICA
Experimental: (§1) Table 3: ULK1 inhibitor potency was determined using the luminescent ADP Glo Kinase Assay (Promega), a universal ADP detection system that measures kinase activity by quantifying the amount of ADP produced during a kinase reaction. ULK1 kinase reactions are performed in a standard 96-well microplate (20 uL reaction volume) at 25° C. for 40 minutes in the presence or absence of the test compound (12-point dilution series starting at 10 uM). Addition of MBP substrate and ATP initiates the kinase reaction.The standard ADP Glo assay is performed in two steps. In step one, following the kinase reaction, an equal volume of ADP-Glo™ Reagent (20 uL) is added to terminate the kinase reaction and deplete the remaining ATP. In the second step, the Kinase Detection Reagent (10 uL) is added to simultaneously convert ADP to ATP and allow the newly synthesized ATP to be measured using a luciferase/luciferin reaction. Step two of the ADP Glo assay is performed in a white 384-well plate (20 uL final volume). Thirty minutes after the addition of the Detection reagent, light generated from the luciferase reaction is measured (1 second exposure) using a microplate compatible luminometer (CLARIOstar, BMG Labtech).Inhibition of ULK1 kinase activity is determined for each test compound by comparison to DMSO only control wells.

[2] = molecular target: T2, Serine/threonine-protein kinase ULK1 [1-649] (UniProt O75385); assay: ADP Glo Kinase Activity Assay
T2 construct: 1-649
T2 sequence (O75385 whole entry): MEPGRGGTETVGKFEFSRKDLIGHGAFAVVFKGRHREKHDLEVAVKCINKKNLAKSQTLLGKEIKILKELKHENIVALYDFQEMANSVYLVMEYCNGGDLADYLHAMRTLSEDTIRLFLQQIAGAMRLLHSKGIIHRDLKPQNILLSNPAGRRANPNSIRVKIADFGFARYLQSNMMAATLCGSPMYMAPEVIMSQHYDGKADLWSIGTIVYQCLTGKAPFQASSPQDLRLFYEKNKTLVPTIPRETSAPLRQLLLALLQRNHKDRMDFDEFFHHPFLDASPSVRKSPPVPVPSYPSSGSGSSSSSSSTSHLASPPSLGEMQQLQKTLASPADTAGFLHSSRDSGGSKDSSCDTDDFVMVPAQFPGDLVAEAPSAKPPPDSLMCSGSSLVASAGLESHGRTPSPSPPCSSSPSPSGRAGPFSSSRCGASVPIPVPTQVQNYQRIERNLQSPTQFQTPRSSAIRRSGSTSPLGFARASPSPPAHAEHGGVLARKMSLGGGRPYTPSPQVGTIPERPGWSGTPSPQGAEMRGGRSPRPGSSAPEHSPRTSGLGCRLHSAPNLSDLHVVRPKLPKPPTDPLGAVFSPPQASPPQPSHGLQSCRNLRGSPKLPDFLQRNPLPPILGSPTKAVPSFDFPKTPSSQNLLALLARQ
Experimental: as §1, with “4:” for “3:”, “μL” for “uL”, “μM).” for “uM).”, “peptide” for “MBP”, “μL)” for “uL)”, “wells. Inhibitor IC50 was calculated by plotting the change in luminescence after 30 minutes (response) versus inhibitor concentration (in log molar) then applying the four-parameter variable slope curve fit (GraphPad Prism).” for “wells.”

Row | Compound | IC50 [1] | IC50 [2]
1 | CN1CCN(c2ccc(Nc3ncc(C(F)(F)F)c(-c4cc(S(C)(=O)=O)cs4)n3)c(Cl)c2)CC1 [US20250144094, Example 112] | < 10 nM | –
2 | O=C1c2sc(-c3nc(Nc4ccc(N5CCN(CC6CC6)CC5)cc4C4CC4)ncc3C(F)(F)F)cc2S(=O)(=O)CCN1C1CC1 [US20250144094, Example 251] | – | < 5 nM
3 | O=C1NCCS(=O)(=O)c2cc(-c3nc(Nc4cc5c(cc4F)CNCC5)ncc3C(F)(F)F)sc21 [US20250144094, Example 134] | < 10 nM | –
4 | CS(=O)(=O)c1csc(-c2nc(Nc3cn(C4CNC4)nc3C3CC3)ncc2C(F)(F)F)c1 [US20250144094, Example 130] | < 10 nM | –
5 | CCc1cc(C2CCNCC2)ccc1Nc1ncc(C(F)(F)F)c(-c2cc3c(s2)C(=O)N(C2CC2)CCS3(=O)=O)n1 [US20250144094, Example 281] | – | 7.5 nM
6 | O=C1c2sc(-c3nc(Nc4cc5c(cc4Cl)CNCC5)ncc3C(F)(F)F)cc2S(=O)(=O)CCN1CC1CC1 [US20250144094, Example 153] | – | < 5 nM
7 | CCN1CCc2cc(Nc3ncc(C(F)(F)F)c(-c4cc5c(s4)C(=O)N(CC(F)(F)F)CCS5(=O)=O)n3)c(C3CC3)cc2C1 [US20250144094, Example 245] | – | < 5 nM
8 | NC(=O)CN1CCc2cc(Nc3ncc(C(F)(F)F)c(-c4cc5c(s4)C(=O)N(C4CC4)CCS5(=O)=O)n3)c(C3CC3)cc2C1 [US20250144094, Example 278] | – | < 5 nM
9 | O=C1c2sc(-c3nc(Nc4cc5c(cc4C4CC4)CN(CCF)CC5)ncc3C(F)(F)F)cc2S(=O)(=O)CCN1C1COC1 [US20250144094, Example 290] | – | < 5 nM
10 | CN1CCc2cc(Nc3ncc(C(F)(F)F)c(-c4cc(S(C)(=O)=O)cs4)n3)ccc2C1 [US20250144094, Example 106] | < 10 nM | –
11 | CCN1CCc2cc(Nc3ncc(C(F)(F)F)c(-c4cc5c(s4)C(=O)N(C4CCC4)CCS5(=O)=O)n3)c(C3CC3)cc2C1 [US20250144094, Example 226] | – | < 5 nM
12 | CN1CCN(c2ccc(Nc3ncc(C(F)(F)F)c(-c4cc5c(s4)C(=O)N(C)CCS5(=O)=O)n3)c(Cl)c2)CC1 [US20250144094, Example 194] | – | < 5 nM
13 | C[C@@H]1CN(c2ccc(Nc3ncc(C(F)(F)F)c(-c4cc5c(s4)C(=O)N(C)CCS5(=O)=O)n3)c(C3CC3)c2)CCN1 [US20250144094, Example 365] | – | < 5 nM
14 | CCc1cc2c(cc1Nc1ncc(C(F)(F)F)c(-c3cc4c(s3)C(=O)N(C3COC3)CCS4(=O)=O)n1)CCNC2 [US20250144094, Example 229] | – | < 5 nM
15 | CN1Cc2ccc(Nc3ncc(C(F)(F)F)c(-c4cc(S(C)(=O)=O)cs4)n3)cc2C1 [US20250144094, Example 81] | < 10 nM | –
16 | COCCS(=O)(=O)c1csc(-c2nc(Nc3cc4c(cc3C3CC3)CNCC4)ncc2C(F)(F)F)c1 [US20250144094, Example 65] | < 10 nM | –
17 | CN1CCS(=O)(=O)c2cc(-c3nc(Nc4ccc(N5CC6CC(C5)N6)cc4C4CC4)ncc3C(F)(F)F)sc2C1=O [US20250144094, Example 381] | – | < 5 nM
